Paper PMC9144936, “New Cu^+2 Complexes with N-Sulfonamide Ligands: Potential Antitumor, Antibacterial, and Antioxidant Agents” (Molecules, 2022)

System: Swiss mice
Details: mouse, in vivo, ip, 150 mg/kg/day
Procedure: This study was carried out for a period of 2 weeks on 10 adult Swiss mice, with 5 males and 5 females.
A subacute toxicity study was carried out for a period of 2 weeks for the C2 complex. In total, 10 adult Swiss mice, 32.26 ± 1.3 g body weight, with 5 males and 5 females, were used. The mice were caged in standard polypropylene cages, in standard laboratory conditions (12 h light/dark cycle, temperature 25 ± 1 °C, and relative humidity 55 ± 5%). Standard lab chow, provided by the “Cantacuzino” National Insitute for Research and Development Bucharest, and water were freely available. All procedures performed on mice complied with the European Directive 2010/63/EU and the national low 43/2014 for Protection of Animals Used for Scientific Purposes. This study was approved by the Bioethical Board of the Faculty of Veterinary Medicine Cluj-Napoca (accord no.290/22.11.2021) and the Veterinary Sanitary Direction and Food Safety (accord no.284/21.12.2021). All mice received i.p. 150 mg complex C2/kg b.w./day, for 2 weeks. […]
The general clinical status and the body weight were recorded daily. […]
The liver and kidneys were also removed. […] To determine the hematological toxicity, erythrogram, leukogram, and thrombogram were assessed using a Diatron Abascus Junior Vet 3.

For “[Cu(N-(5-Ethyl--[1,3,4]-Thiadiazole-2-yl) Naphtalenesulfonamidate)2(py)2(H2O)] [C2]”, the clinical changes was “did not undergo clinical changes” and the “histological analyses of kidney and liver” value was “normal structure”.
